Measurements published in a melting point compilation (Tetko et al.; mined from patent text by program, amines drawn as free bases though some values may be those of a salt).

For CCN(CC)CCNC(=O)c1nc(Cl)c(OC)nc1OC, which melting point is on record?
The melting point was 88 °C.

Which melting point does the source give for O=C(NCC1C2(CCCC1(c1ccccc1)c1ccccc1)OCCO2)c1ccccc1 (racemic) here?
The melting point was 162 °C.

For NS(=O)(=O)c1ccc(-c2cc(-c3nc(-c4ccc(Cl)cc4)cc(C(F)(F)F)n3)ccn2)s1, which melting point is on record?
The melting point was 290 °C.

Which melting point does the source give for CC(=O)O[C@H]1CC=CO[C@@H]1COS(=O)(=O)c1ccc(C)cc1 here?
Its melting point is 76 to 79 °C.

With COc1ccc(C(=O)NCCCCCCCCCCCNC(=O)c2ccc(OC)cc2)cc1 as the compound, how does the melting point read?
The melting point was 150 to 151 °C.

With O=C(O)CCc1cc(Br)c(OC(=O)c2c3ccccc3nc3ccccc23)c(Br)c1 as the compound, how does the melting point read?
Its melting point is 240 to 242 °C.

For COCCN1CCC(c2nc3cc(-c4ccc(-n5cnnn5)cc4F)ccc3o2)CC1, which melting point is on record?
Its melting point is 148 to 152 °C.

With COc1cc(OC)nc(-n2nc(C)n(N)c2=O)n1 as the compound, how does the melting point read?
The melting point was 219 °C.

With O=C(NCCO)/C(=C/c1ccc(OC(F)F)cc1)NC(=O)c1ccc(OCCC2CC2)cc1 as the compound, how does the melting point read?
Its melting point is 153 to 155 °C.

For O=C(Nc1ccc([N+](=O)[O-])cc1)c1ccc(F)cc1, which melting point is on record?
Its melting point is 117 to 118 °C.

With C1=C[C@H]2CCN(CC3CC3)C[C@@H]2Cc2ccccc21 (relative stereo) as the compound, how does the melting point read?
Its melting point is 157 to 159 °C.

For Nc1ncnc2c1c(-c1ccc(Oc3ccccc3)cc1)cn2CCCCCCCCN1C(=O)c2ccccc2C1=O, which melting point is on record?
The melting point was 85 to 86 °C.

For CS(=O)(=O)c1ccc(-c2cc(C(=O)CCCO[N+](=O)[O-])nn2-c2ccccc2)cc1, which melting point is on record?
The melting point was 142 to 144 °C.

For Nc1ncnc2c1c(-c1cccnc1)nn2Cc1oc2ccccc2c(=O)c1-c1ccccc1, which melting point is on record?
Its melting point is 253 to 255 °C.

For O=S(=O)(O)c1cccc(Nc2ccnc3cc(Cl)ccc23)c1, which melting point is on record?
The melting point was greater than 300 °C.

For CCCCCCCCC(C)C(=O)NCl (centres undefined), which melting point is on record?
The melting point was 56 to 57 °C.

For COc1ccc(CCc2c(Cl)cncc2Cl)c2cc(C#N)nn12, which melting point is on record?
Its melting point is 208 to 209 °C.

Which melting point does the source give for NC(=O)c1ncn2c(-c3cccnc3)ccnc12 here?
Its melting point is greater than 260 °C.

With COc1ccc(Cl)cc1NC(=S)C1CCCCn2c1nc(-c1ccncn1)cc2=O (racemic) as the compound, how does the melting point read?
The melting point was 220 to 223 °C.

With CC(C)(C)OC(=O)N1CCC(NC(=O)c2ccc(Cn3cccn3)cc2)CC1 as the compound, how does the melting point read?
Its melting point is 168 to 169 °C.

Which melting point does the source give for CCOC(=O)NNC(=O)NCCOc1ccccc1 here?
Its melting point is 170 to 173 °C.

For COc1cc(S(=O)(=O)c2ccccc2)ccc1[N+](=O)[O-], which melting point is on record?
The melting point was 128 to 130 °C.

Which melting point does the source give for CC(C)(C)OC(=O)n1cc(C(=O)C2CSC(c3cccnc3)N2C(=O)C=O)c2ccccc21 (centres undefined) here?
Its melting point is 125 to 130 °C.

Which melting point does the source give for Cc1ccc(Cl)cc1NS(=O)(=O)c1cc(S(=O)(=O)Nc2cc(Cl)ccc2C)c2ccccc2c1 here?
Its melting point is 125 to 127 °C.

Which melting point does the source give for COc1cccc(C(C)(C)C(=O)O)c1 here?
Its melting point is 46 to 47 °C.

For Nc1cccc(NC(=O)Nc2ccc(N(CCCl)CCCl)cc2)c1, which melting point is on record?
The melting point was 182 to 183 °C.

With CC(C)[C@H](NC(=O)CCC(=O)c1ccccc1)C(=O)O as the compound, how does the melting point read?
Its melting point is 118 to 120 °C.

For CCn1cc(C(=O)O)c(=O)c2cc(F)c(N3CC(N)C3)nc21, which melting point is on record?
Its melting point is 260 to 262 °C.

With Cc1ccc(Cc2cnc(NCCCCc3ncc(Br)cc3C)[nH]c2=O)cn1 as the compound, how does the melting point read?
Its melting point is 151 to 152 °C.

Which melting point does the source give for CC(=O)NC[C@H]1CN(c2ccc(C3=CN(C(=O)COC(C)=O)CCC3)c(F)c2)C(=O)O1 here?
The melting point was 146 to 148 °C.

Which melting point does the source give for O=C(Oc1ccccc1C(=O)NCCO[N+](=O)[O-])c1cccnc1 here?
The melting point was 94 to 96 °C.

Which melting point does the source give for COC(=O)OCC1OC(Oc2cc(C)cc(O)c2C(=O)CCc2ccc3occc3c2)C(O)C(O)C1O (centres undefined) here?
The melting point was 78 to 82 °C.

For CC(=O)NCc1cc(-c2ccccc2)c2c(n1)OCCN(Cc1cc(C(F)(F)F)cc(C(F)(F)F)c1)C2=O, which melting point is on record?
The melting point was 223 to 224 °C.

Which melting point does the source give for FC(F)(F)c1ccc(Oc2ccc(OCc3ccccc3)cc2)c(Cl)c1 here?
The melting point was 63 to 66 °C.

Which melting point does the source give for CN1C[C@@H](C(=O)OC(C)(C)C)NC1=O here?
Its melting point is 135 to 136 °C.

With CCOc1ccc(C(c2ccc(C(C)(C)C)cc2)C(CC)[N+](=O)[O-])cc1 (centres undefined) as the compound, how does the melting point read?
The melting point was 95 to 97 °C.

For Nc1ncnc2c1ncn2C[C@@H](CF)OCP(=O)(O)O, which melting point is on record?
Its melting point is 194 to 197 °C.

With COc1ccc(Cc2cc(O)ccc2OC)cn1 as the compound, how does the melting point read?
The melting point was 121 to 124 °C.

Which melting point does the source give for COC(=O)c1cc(F)c(OS(=O)(=O)c2c(C)cc(C)cc2C)nc1Nc1ccc(F)cc1F here?
The melting point was 153 to 155 °C.

With O=C1c2ccc(C(F)(F)F)cc2C(=O)c2cc3ccccc3cc21 as the compound, how does the melting point read?
The melting point was 253 to 254 °C.

Which melting point does the source give for O=C(O)/C=C/C#Cc1cccc(S(=O)(=O)Nc2ccccc2)c1 here?
The melting point was 188 to 190 °C.

Which melting point does the source give for CCOC(=O)c1ncc2[nH]c3ccc(NC(C)=O)cc3c2c1C here?
Its melting point is 273 to 278 °C.

For OCCc1c2ccccc2cc2ccccc12, which melting point is on record?
The melting point was 85 to 87 °C.

With Cc1cc(Sc2ccc3nc(COc4ccc(CC5SC(=O)NC5=O)cc4)n(C)c3n2)cc(C)c1NC(=O)Nc1ccc(C(F)(F)F)cc1 (centres undefined) as the compound, how does the melting point read?
The melting point was 193 to 195 °C.

For CC(=O)Nc1nc(/C=C\c2ccc([N+](=O)[O-])cc2)cs1, which melting point is on record?
The melting point was 155 to 157 °C.

With O=C(Nc1nc(C(F)(F)F)co1)C1c2ccccc2Oc2cc(F)ccc21 (racemic) as the compound, how does the melting point read?
The melting point was 221 °C.

Which melting point does the source give for COc1cc2c(cn1)CCC(=CN(C)C)C2=O here?
Its melting point is 102 to 104 °C.

With CCCCC(=O)c1c(-c2ccc3c(Br)c(OCC#N)ccc3c2)oc2ccccc12 as the compound, how does the melting point read?
Its melting point is 98 to 100 °C.

With O=C(c1cc(C(F)(F)F)cc(C(F)(F)F)c1)N1CCOc2nccc(-c3ccccc3)c2C1 as the compound, how does the melting point read?
Its melting point is 179 to 180 °C.

With CCSCCC(=O)NCC(=O)N1Cc2ccccc2Oc2ccc(Cl)cc21 as the compound, how does the melting point read?
Its melting point is 148 to 151 °C.

Which melting point does the source give for Cn1c(=O)c(C#N)c(N2CCN(C(=O)c3cccs3)CC2)c2cc(Cl)ccc21 here?
The melting point was 262 °C.

With NC(=NO)C1CCN(C(=O)OCc2ccccc2)CC1 as the compound, how does the melting point read?
The melting point was 111 to 113 °C.

Which melting point does the source give for Clc1ccc(-c2cc(C3CC3)nc(Cl)n2)cc1 here?
Its melting point is 70 to 72 °C.

Which melting point does the source give for COc1cccc2c3c([nH]c12)C(=O)N=NC3=O here?
The melting point was greater than 260 °C.

With C=Cc1cc(NC(=O)N2CCN(c3cc(OC)cc(OC)c3)CC2)c(OC)nc1C as the compound, how does the melting point read?
The melting point was 140 to 141 °C.

With O=[N+]([O-])c1ccc(-n2nnnc2-c2ccccc2Br)cc1 as the compound, how does the melting point read?
The melting point was 169 to 170 °C.

With Cn1nc(Oc2ccc([N+](=O)[O-])c([N+](=O)[O-])c2)c(Br)c1C(F)(F)F as the compound, how does the melting point read?
The melting point was 152 to 153 °C.

With O=C(O)c1ccccc1C(=O)c1ccc(F)cc1F as the compound, how does the melting point read?
Its melting point is 129 to 131 °C.

Which melting point does the source give for COc1cc(-c2ccccc2)cc(-c2ccccc2)c1 here?
Its melting point is 93 to 94 °C.

With O=C(O)c1ccccc1Nc1ccc([N+](=O)[O-])cc1[N+](=O)[O-] as the compound, how does the melting point read?
Its melting point is 266 to 270 °C.

With CC#CCOc1ccc(SC(CCCCCC)C(=O)O)cc1 (centres undefined) as the compound, how does the melting point read?
Its melting point is 125 °C.

With CC(=O)Oc1ccc(C(=O)Nc2cccc(OCc3cncc4ccccc34)c2)cc1C(C)(C)C as the compound, how does the melting point read?
The melting point was 83 to 86 °C.

For COc1ccc(OC)c(S(=O)(=O)Nc2ccccc2/C=C/c2ccncc2)c1, which melting point is on record?
Its melting point is 193 to 195 °C.

For COc1cc(OC)cc(N2CCN(C(=O)N(C)c3nc4ccccc4nc3OC)CC2)c1, which melting point is on record?
Its melting point is 143 to 144 °C.

With O=[N+]([O-])c1ccc2[nH]cc(CCCBr)c2c1 as the compound, how does the melting point read?
The melting point was 92 to 95 °C.

Which melting point does the source give for CC1(C)C(=O)N(Cl)C(C)(C)C(=O)N1Cl here?
The melting point was 176 to 178 °C.

For COC(=O)C1(NC(=O)Cc2cc(-c3ccc(Cl)cc3)ccc2Cl)CCC(C)(C)CC1, which melting point is on record?
The melting point was 128 °C.

With Cc1cc(N(C)C)c2c(N)c(C(N)=O)sc2n1 as the compound, how does the melting point read?
Its melting point is 167 to 170 °C.

For N#Cc1c(Nc2ccccc2)cccc1Oc1ccccc1, which melting point is on record?
The melting point was 146 to 147 °C.
